Assay results: the NIST ThermoML archive (doi:10.1016/j.fluid.2013.10.060)
± gives the expanded uncertainty stated by the source.

Tests used:
[1] = for mass density: 298.15 K, 101.33 kPa, Liquid, Vibrating tube method; for surface tension liquid-gas: 303.15 K, Maximal bubble pressure
[2] = Boiling temperature at pressure P; details: 101.33 kPa; Liquid; Ebulliometric method (Recirculating still)
[3] = refractive index (Na D-line) (dimensionless); details: 298.15 K; 101.33 kPa; Liquid; Standard Abbe refractometry

For CCO [ethanol], which mass density [1] is on record?
Its mass density is 785.09 ± 0.15 kg/m3.

What about the surface tension liquid-gas [1] of the same molecule?
Its surface tension liquid-gas is 21.7 ± 0.18 mN/m.

And the “Boiling temperature at pressure P” value [2]?
Its value is 78.30 ± 0.02 °C.

And the refractive index [3]?
The refractive index was 1.36068 ± 0.00031.

With CCCCCC [hexane] as the molecule, how does the mass density [1] read?
The mass density was 655.19 ± 0.18 kg/m3.

And the surface tension liquid-gas [1]?
The surface tension liquid-gas was 17.4 ± 0.16 mN/m.

And the refractive index [3]?
Its refractive index is 1.37374 ± 0.00031.

Which results are given for C1CCOCC1 [tetrahydropyran]?
mass density [1]: 879.03 ± 0.13 kg/m3; surface tension liquid-gas [1]: 27.1 ± 0.2 mN/m; Boiling temperature at pressure P [2]: 88.21 ± 0.02 °C; refractive index [3]: 1.42 ± 0.00031
